US10550117B2, “2-azabicyclo[3.1.0]hexan-3-one derivatives and methods of use” (Genentech, Inc., priority 2016, dated 2020)

Columns and labels:
[1] = test system: REL-A (p65) nuclear translocation in HUVEC; assay: REL-A HUVEC nuclear translocation assay (TNF-α stimulated, high content imaging); assay type: cell-based; details: Homo sapiens, 2 ng/mL TNF-α
Protocol: (§1) (2) A second set of cell assays used primary human umbilical vein cells (HUVEC) sourced from Lonza to define the selectivity of NIK inhibitors toward inhibition of classical vs. non-classical NF-kB signaling using high content cellular imaging. For the p52 (non-classical NF-kB signaling) nuclear translocation assay, HUVEC were treated with different concentrations of compounds (0.2% DMSO final) in EBM-2 medium (LONZA) containing 2% fetal bovine serum and then stimulated with 300 ng/mL of an anti-lymphotoxin beta receptor antibody (R&D Systems) for 4.5 hours. In the REL-A nuclear translocation assay, HUVEC were incubated with compounds (0.2% DMSO final) for 4 hours 50 minutes in EBM-2 medium containing 2% fetal bovine serum before stimulating them with 2 ng/mL tumor necrosis factor (TNF)-α (R&D Systems) for 10 minutes. Cells were fixed with 4% paraformaldehyde, permeabilized by adding 0.1% Triton X-100 in phosphate buffered saline, and then were incubated with either 2 μg/mL anti-p52 antibody (Millipore) or 400 ng/mL anti-REL-A (p65) antibody (Santa Cruz Biotechnology). Finally, the cells were incubated with an Alexa488-labeled secondary antibody (Invitrogen) and DRAQ5 DNA stain (Biostatus). Imaging was carried out using an Opera reader (Perkin Elmer) and data were analyzed with the aid of Acapella software (Perkin Elmer). The p52 or REL-A translocation into the nucleus was quantified by the ratio of the nuclear to cytoplasmic signal intensity.

[2] = test system: p52 (non-classical NF-kB signaling) nuclear translocation in HUVEC; assay: p52 HUVEC nuclear translocation assay (anti-lymphotoxin beta receptor antibody stimulated); assay type: cell-based; details: Homo sapiens, 300 ng/mL anti-lymphotoxin beta receptor antibody
Protocol: as §1

[3] = Liver microsome stability; assay type: in vitro ADME; details: for HLM CL (human liver microsome clearance): human liver microsomes; for stability in human liver microsomes versus the corresponding pyrrolidinone comparator compound: qualitative comparison
Protocol: Metabolic stability assays in liver microsomes are conducted with pooled female CD-1 mouse, male Sprague-Dawley rat, male beagle dog, male cynomolgus monkey, and mixed male and female human liver microsomal incubations. The general assay conditions are as follows. Incubation mixtures consisted of liver microsomes (0.5 mg of microsomal protein/ml) and the test compound (1.0 μM) with or without NADPH (1.0 mM) in the potassium phosphate buffer (100 mM; pH 7.4) with a final incubation volume of 0.25 ml. Reactions are initiated by the addition of NADPH or buffer and shaken in a water bath open to the air at 37° C. At times 0, 20, 40, and 60 min, aliquots (50 μl) are removed and added to termination mixtures (100 μl) containing acetonitrile and an internal standard. The samples are then centrifuged for 10 min at 2000 g. The supernatant (90 μl) is removed, combined with 180 μl of water, and analyzed by LC-MS/MS.
Metabolic stability of the test compounds were evaluated in human liver microsomes following known protocols described in Halladay, et al. Drug Metabol. Lett. 2007, 1:67-72.

[4] = Hepatocyte stability; assay type: in vitro ADME; details: human hepatocytes; for stability in the human hepatocyte assay versus the corresponding pyrrolidinone comparator compound: qualitative comparison
Protocol: General. Metabolic stability assays in hepatocytes are conducted using cryopreserved pooled female CD-1 mouse, male Sprague-Dawley rat, male beagle dog, male cynomolgus monkey, and mixed male and female human hepatocytes (CellzDirect). Vials of hepatocytes are thawed rapidly in a water bath set at 37° C. and then are diluted with Dulbecco's modified Eagle's medium (DMEM), pH 7.4. Cells are isolated by centrifugation, pooled, and resuspended in DMEM at 1.0 million viable cells/ml. Membrane integrity of the cells is assessed by trypan blue exclusion. The test compound is dissolved in dimethyl sulfoxide at a final concentration of 10 mM. This test compound stock is diluted further to 2 μM in DMEM (125 μl) before the addition of an equal volume of the 10^6 cells/ml cell suspension. The test compound (final incubation concentration of 1.0 μM with 0.1% dimethyl sulfoxide) and cells (final concentration of 0.5×10^6 cells/ml) are incubated at 37° C. in a 95% air/5% CO2 atmosphere for 3 h. Aliquots (50 μl) are removed at 0, 1, 2, and 3 hours and added to termination mixtures (100 μl) containing acetonitrile and an internal standard. The samples are then centrifuged for 10 min at 2000 g. The supernatant (90 μl) is removed, combined with 180 μl of water, and analyzed by LC-MS/MS.
Metabolic stability of the test compounds were evaluated also in human hepatocytes, following protocols described in Hallifax, et al. Drug Metabol. Disposition, 2005, 33:1852-1858.

[5] = biological target: nuclear factor-kappa B (NF-kB)-inducing kinase (NIK) (Homo sapiens (Human), UniProt Q99558); assay: NIK enzyme inhibition assay (Transcreener ADP fluorescence polarization); assay type: biochemical; details: for Ki: purified NIK 0.5 nM, 10 μM ATP, Morrison equation, read-out: NIK ADP-FP Ki; for NIK enzyme inhibition, potency in words relative to the other stereoisomers: stereoisomers separated by chiral SFC, qualitative
Protocol: The ability of the nuclear factor-kappa B (NF-kB)-inducing kinase (NIK) to catalyze the hydrolysis of adenosine-5′-triphosphate (ATP) was monitored using the Transcreener ADP (adenosine-5′-diphosphate) assay (BellBrook Labs). […] Reactions were quenched by the addition of 20 mM 2,2′,2″,2′″-(ethane-1,2-diyldinitrilo)tetraacetic acid and 0.01% Brij 35. The tracer bound to the antibody was displaced by the ADP generated during the NIK reaction, which causes a decrease in fluorescence polarization that was measured by laser excitation at 633 nm with a Fluorescence Correlation Spectroscopy Plus reader (Evotec AG). Equilibrium dissociation constant (Ki) values for NIK inhibitors are calculated from plots of activity vs. inhibitor concentration using Morrison's quadratic equation that accounts for the potential of tight binding, and by also applying the conversion factor that accounted for competitive inhibition and the concentration of substrate used in the assay relative to its Michaelis constant (Km).

[6] = test system: REL-A (p65) nuclear translocation in HeLa cells; assay: REL-A HeLa nuclear translocation assay (TNF-α stimulated, high content imaging); assay type: cell-based; details: Homo sapiens, 10 ng/mL TNF-α
Protocol: (§2) (3) A third set of cell assays are used to define the selectivity of NIK inhibitors toward inhibition of classical vs. non-classical NF-kB signaling and rely on quantification of the nuclear translocation of p52 (NF-kB2) and REL-A (p65) using high content cellular imaging. For the p52 (non-classical NF-kB signaling) nuclear translocation assay, HeLa cells are treated with different concentrations of compounds (0.2% DMSO final) in medium containing 10% fetal bovine serum and then stimulated with 100 ng/mL of an anti-lymphotoxin beta receptor antibody (R&D Systems) for 5 hours. In the REL-A nuclear translocation assay, HeLa cells are incubated with compounds (0.2% DMSO final) for 4.5 hours in medium containing 10% fetal bovine serum before stimulating them with 10 ng/mL tumor necrosis factor (TNF)-α (R&D Systems) for 30 minutes. Cells are fixed with 4% paraformaldehyde, permeabilized by adding 0.1% Triton X-100 in phosphate buffered saline, and then are incubated with either 2 μg/mL anti-p52 antibody (Millipore) or 400 ng/mL anti-REL-A (p65) antibody (Santa Cruz Biotechnology). Finally, the cells are incubated with an Alexa488-labeled secondary antibody (Invitrogen) and DRAQ5 DNA stain (Biostatus). Imaging is carried out using an Opera reader (Perkin Elmer) and data are analyzed with the aid of Acapella software (Perkin Elmer). The p52 or REL-A translocation into the nucleus is quantified by the ratio of the nuclear to cytoplasmic signal intensity. […] The test compounds have the corresponding inhibitory values (IC50) for NIK REL-A (p65) and p52 Translocation Assays as set forth in Table B2.

[7] = test system: p52 (NF-kB2) nuclear translocation in HeLa cells; assay: p52 HeLa nuclear translocation assay (anti-lymphotoxin beta receptor antibody stimulated); assay type: cell-based; details: Homo sapiens, 100 ng/mL anti-lymphotoxin beta receptor antibody
Protocol: as §2

nuclear factor-kappa B (NF-kB)-inducing kinase (NIK), sequence (Q99558 whole entry): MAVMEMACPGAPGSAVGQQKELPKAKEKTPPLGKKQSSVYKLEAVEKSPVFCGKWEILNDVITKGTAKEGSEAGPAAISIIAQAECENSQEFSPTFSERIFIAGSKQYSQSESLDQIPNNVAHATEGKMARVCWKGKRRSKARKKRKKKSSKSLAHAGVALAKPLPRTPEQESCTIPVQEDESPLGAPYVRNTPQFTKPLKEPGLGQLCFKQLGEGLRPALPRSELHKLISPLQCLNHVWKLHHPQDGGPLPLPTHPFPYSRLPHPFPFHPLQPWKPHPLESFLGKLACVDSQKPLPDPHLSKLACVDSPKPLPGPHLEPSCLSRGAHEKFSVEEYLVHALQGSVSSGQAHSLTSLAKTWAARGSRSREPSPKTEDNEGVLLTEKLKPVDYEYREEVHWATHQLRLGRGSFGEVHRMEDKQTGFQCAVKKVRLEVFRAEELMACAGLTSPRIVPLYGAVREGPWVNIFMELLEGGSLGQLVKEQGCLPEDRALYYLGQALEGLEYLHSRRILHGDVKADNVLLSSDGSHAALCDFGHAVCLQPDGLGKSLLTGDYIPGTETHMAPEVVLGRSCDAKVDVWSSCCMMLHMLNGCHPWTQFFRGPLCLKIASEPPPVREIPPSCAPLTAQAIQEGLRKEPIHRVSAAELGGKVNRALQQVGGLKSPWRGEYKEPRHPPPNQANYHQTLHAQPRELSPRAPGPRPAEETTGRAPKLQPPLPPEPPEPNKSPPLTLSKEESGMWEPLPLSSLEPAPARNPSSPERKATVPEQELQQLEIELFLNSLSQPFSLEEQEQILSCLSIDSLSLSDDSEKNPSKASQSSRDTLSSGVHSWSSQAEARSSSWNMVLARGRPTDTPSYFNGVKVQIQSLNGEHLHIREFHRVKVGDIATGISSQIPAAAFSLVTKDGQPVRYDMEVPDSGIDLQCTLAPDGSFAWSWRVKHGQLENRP

Compound | IC50 [1] [nM] | IC50 [2] [nM] | HLM CL (human liver microsome clearance) [3] [mL/min/kg] | stability in human liver microsomes versus the corresponding pyrrolidinone comparator compound [3] | Hep CL (human hepatocyte clearance) [4] [mL/min/kg] | stability in the human hepatocyte assay versus the corresponding pyrrolidinone comparator compound [4] | Ki [5] [nM] | NIK enzyme inhibition, potency in words relative to the other stereoisomers [5] | IC50 [6] [nM] | IC50 [7] [nM]
CN1C(=O)[C@](O)(C#Cc2cccc(-c3nc(C(N)=O)n4ccccc34)c2)[C@H]2C[C@H]21 [Compound 3] | > 5000 | 25 | 11 | better stability | 9.0 | better stability |  |  |  | 
CN1C(=O)[C@](O)(C#Cc2cccc(-c3nc(C(N)=O)c4ccccn34)c2)[C@H]2C[C@H]21 [Compound 5, 3-(3-(((1R,4R,5S)-4-hydroxy-2-methyl-3-oxo-2-azabicyclo[3.1.0]hexan-4-yl)ethynyl)phenyl)imidazo[1,5-a]pyridine-1-carboxamide] | > 5000 | 3000 | 3.5 | better stability | 1.6 | better stability | 4.7 | most potent NIK enzyme inhibitor among the 4 stereoisomers |  | 
COc1ccn2c(C(N)=O)nc(-c3cccc(C#C[C@]4(O)CCN(C)C4=O)c3)c2c1 [Compound C-4, reference compound] | > 5000 |  | 15 |  | 9.9 |  |  |  | > 1000 | 6.6
CN1CC[C@@](O)(C#Cc2cccc(-c3nc(C(N)=O)n4ccccc34)c2)C1=O [Compound C-3] | > 5000 |  |  |  |  |  |  |  | > 20000 | 29.8
CN1C(=O)[C@](O)(C#Cc2cccc(-n3nc(C(N)=O)c4cccnc43)c2)[C@H]2C[C@H]21 [Compound 1, 1-(3-(((1R,4R,5S)-4-hydroxy-2-methyl-3-oxo-2-azabicyclo[3.1.0]hexan-4-yl)ethynyl)phenyl)-1H-pyrazolo[3,4-b]pyridine-3-carboxamide] | > 5000 | 55 | 5.8 | better stability | 0.8 | better stability | 0.88 | most potent NIK enzyme inhibitor among the 4 stereoisomers |  | 
CN1C(=O)[C@](O)(C#Cc2cccc(-n3nc(C(N)=O)c4cccnc43)c2)[C@@H]2C[C@@H]21 [Compound 2, 1-(3-(((1S,4R,5R)-4-hydroxy-2-methyl-3-oxo-2-azabicyclo[3.1.0]hexan-4-yl)ethynyl)phenyl)-1H-pyrazolo[3,4-b]pyridine-3-carboxamide] | > 5000 | 280 | 7.7 |  | 13 |  | 4.3 | second most potent NIK enzyme inhibitor among the 4 stereoisomers |  | 
